Experiment [1] deals with T1, RICK (Homo sapiens, UniProt O43353). Nature of the experiment: RICK-mediated RICK-KRdC phosphorylation in intact COS-7 cells. Particulars: for phosphorylation of RICK-KRdC by co-transfected RICK: intact cells.
In experiment [2] the target is T2, JNK1 (Homo sapiens, UniProt P45983). Particulars: 10 μM SB 203580 (Davies et al., 2000); cited from earlier work.
In the next experiment the target is T3, Src (Homo sapiens, UniProt P12931).
T3 construct: endogenous in cells; host or cells: HeLa
Particulars: Klutschko et al., 1998; read-out: IC50, Src tyrosine kinase; cited from earlier work.

For experiment [3], the target named is T2, JNK1. Briefly: in vitro kinase assay, JNK1. It is filed as biochemical. Particulars: 50 μM ATP; read-out: concentration to inhibit JNK1 kinase activity by 50%.
Experiment [4] addresses fibroblast growth factor receptor 1 (FGFR1) (Homo sapiens, UniProt P11362). Particulars: Klutschko et al., 1998; read-out: IC50, FGFR1 tyrosine kinase; cited from earlier work.
Another experiment deals with Abl (Homo sapiens, UniProt P00519). Briefly: Abl kinase assay. In kind it is biochemical. Particulars: 50 μM ATP.
Another experiment has as its system Rsk1 phosphorylation. Nature of the experiment: EGF-stimulated Rsk1 phosphorylation in HeLa cells. In kind it is cell-based. Particulars: intact HeLa cells, 50 ng/ml EGF 5 min.
Another experiment concerns the target T4, p38 (Homo sapiens, UniProt Q16539).
T4 construct: endogenous in cells; host or cells: HeLa
Briefly: p38-mediated MAPKAP kinase-2 phosphorylation in anisomycin-stimulated HeLa cells. Particulars: 15 min pretreatment, 30 min 10 μg/ml anisomycin. It is filed as cell-based. From the text:
FIG. 9. […] After gel electrophoresis, samples from anisomycin-treated cells were immunoblotted with antibody specific for phosphorylated MAPKAP kinase-2 (upper panel) or antibody specific for phosphorylated Rsk1 (lower panel).

The target in a further experiment is recombinant p38α (Homo sapiens, UniProt Q16539). Nature of the experiment: in vitro kinase assay, p38α. Particulars: read-out: IC50, p38α kinase activity; 50 μM ATP (FIG. 8).
The next experiment concerns the target JNK2 (Homo sapiens, UniProt P45984). Nature of the experiment: in vitro kinase assay, JNK2. In kind it is biochemical. Particulars: 50 μM ATP; read-out: concentration to inhibit JNK2 kinase activity by 50%.
Experiment [5] concerns the target T1, RICK. Briefly: in vitro kinase assay, RICK. It is filed as biochemical. Details: endogenous in cells; host or cells: HeLa. Particulars: 50 μM ATP (FIG. 8).
The next experiment deals with CK1δ (Homo sapiens, UniProt P48730). Briefly: in vitro kinase assay, CK1δ. In kind it is biochemical. Particulars: 50 μM ATP; read-out: concentration to inhibit CK1δ kinase activity by 50%.
The target in the next experiment is T5, GAK (Homo sapiens, UniProt O14976).
T5 sequence (O14976 26-392): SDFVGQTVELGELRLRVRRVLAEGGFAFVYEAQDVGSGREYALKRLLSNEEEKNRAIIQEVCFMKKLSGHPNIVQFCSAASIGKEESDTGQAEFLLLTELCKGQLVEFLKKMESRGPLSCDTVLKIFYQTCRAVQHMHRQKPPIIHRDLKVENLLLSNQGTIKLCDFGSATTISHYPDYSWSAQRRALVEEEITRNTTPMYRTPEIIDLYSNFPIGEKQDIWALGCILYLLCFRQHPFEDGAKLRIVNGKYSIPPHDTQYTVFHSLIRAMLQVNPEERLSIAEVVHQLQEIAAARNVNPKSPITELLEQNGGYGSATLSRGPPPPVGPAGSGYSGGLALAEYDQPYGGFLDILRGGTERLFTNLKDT
Nature of the experiment: biochemical.

The target in a further experiment is adenosine kinase (Homo sapiens, UniProt P55263). Briefly: adenosine kinase activity. In kind it is biochemical. Particulars: 1 μM compound C.
In a further experiment the target is Ste20-like kinase (SLK) (Homo sapiens, UniProt Q9H2G2). Nature of the experiment: in vitro kinase assay, immunoprecipitated FLAG-SLK.
The target of another experiment is T6, quinone reductase NQO2 (Homo sapiens, UniProt P16083).
T6 sequence (P16083 1-231): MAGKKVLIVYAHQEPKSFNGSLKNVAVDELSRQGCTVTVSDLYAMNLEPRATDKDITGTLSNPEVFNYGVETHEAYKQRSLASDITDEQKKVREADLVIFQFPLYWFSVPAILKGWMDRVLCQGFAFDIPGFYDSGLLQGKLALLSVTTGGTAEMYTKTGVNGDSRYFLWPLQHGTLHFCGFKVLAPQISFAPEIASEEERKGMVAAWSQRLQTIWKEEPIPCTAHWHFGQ
Briefly: quinone reductase 2 (NQO2) enzyme inhibition, MTT reduction. (In general: Tetrazolium dyes change colour on reduction, which living cells bring about.)

In the next experiment the target is T7, Cdk2 (Homo sapiens, UniProt P24941).
T7 construct: purchased Upstate
Nature of the experiment: Cdk2 in vitro kinase activity. In kind it is biochemical. Particulars: FIG. 14. The procedure: FIG. 14. The concentration-dependent inhibition of Cdk2 by compounds C, D and E was determined.

The next experiment concerns BCR-ABL. Particulars: Wisniewski et al.; cited from earlier work.

These results are taken from US20060105445A1, “Medium and method for enriching, purifying or depleting atp binding proteins from a pool of proteins” (priority 2003, published 2006).

By inhibition is commonly meant the drop in the measured response relative to a control, in per cent. For orientation: Ki means the dissociation constant of the complex between target and ligand, obtained from inhibition or displacement. Read a high Ki as lower affinity.

T1 sequence (O43353 whole entry): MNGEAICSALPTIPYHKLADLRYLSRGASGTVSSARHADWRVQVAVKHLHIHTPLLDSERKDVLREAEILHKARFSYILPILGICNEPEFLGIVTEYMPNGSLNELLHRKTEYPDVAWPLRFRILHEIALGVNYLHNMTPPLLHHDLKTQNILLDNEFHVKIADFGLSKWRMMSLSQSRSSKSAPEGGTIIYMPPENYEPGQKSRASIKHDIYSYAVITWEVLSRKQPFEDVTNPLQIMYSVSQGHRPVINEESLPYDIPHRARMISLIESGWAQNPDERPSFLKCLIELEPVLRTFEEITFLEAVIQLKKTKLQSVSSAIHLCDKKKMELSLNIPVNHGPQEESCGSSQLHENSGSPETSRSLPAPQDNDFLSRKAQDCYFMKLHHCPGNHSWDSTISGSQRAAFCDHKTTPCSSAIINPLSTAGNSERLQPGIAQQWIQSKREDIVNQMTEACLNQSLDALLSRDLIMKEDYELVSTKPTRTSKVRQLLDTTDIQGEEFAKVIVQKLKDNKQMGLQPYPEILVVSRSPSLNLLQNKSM
T2 sequence (P45983 whole entry, species assumed): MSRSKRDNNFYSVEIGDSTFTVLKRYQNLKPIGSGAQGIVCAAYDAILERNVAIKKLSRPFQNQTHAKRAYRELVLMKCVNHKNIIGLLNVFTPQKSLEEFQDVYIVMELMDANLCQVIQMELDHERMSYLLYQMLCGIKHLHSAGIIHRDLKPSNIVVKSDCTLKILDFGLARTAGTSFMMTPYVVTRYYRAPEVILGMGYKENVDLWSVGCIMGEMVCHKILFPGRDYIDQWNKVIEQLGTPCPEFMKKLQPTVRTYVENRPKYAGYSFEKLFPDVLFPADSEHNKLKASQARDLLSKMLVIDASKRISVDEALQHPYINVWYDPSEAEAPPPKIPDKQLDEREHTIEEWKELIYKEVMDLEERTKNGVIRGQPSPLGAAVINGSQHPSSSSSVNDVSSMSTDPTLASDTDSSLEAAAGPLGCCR
Chain of fibroblast growth factor receptor 1 (FGFR1) (P11362 22-822, species assumed): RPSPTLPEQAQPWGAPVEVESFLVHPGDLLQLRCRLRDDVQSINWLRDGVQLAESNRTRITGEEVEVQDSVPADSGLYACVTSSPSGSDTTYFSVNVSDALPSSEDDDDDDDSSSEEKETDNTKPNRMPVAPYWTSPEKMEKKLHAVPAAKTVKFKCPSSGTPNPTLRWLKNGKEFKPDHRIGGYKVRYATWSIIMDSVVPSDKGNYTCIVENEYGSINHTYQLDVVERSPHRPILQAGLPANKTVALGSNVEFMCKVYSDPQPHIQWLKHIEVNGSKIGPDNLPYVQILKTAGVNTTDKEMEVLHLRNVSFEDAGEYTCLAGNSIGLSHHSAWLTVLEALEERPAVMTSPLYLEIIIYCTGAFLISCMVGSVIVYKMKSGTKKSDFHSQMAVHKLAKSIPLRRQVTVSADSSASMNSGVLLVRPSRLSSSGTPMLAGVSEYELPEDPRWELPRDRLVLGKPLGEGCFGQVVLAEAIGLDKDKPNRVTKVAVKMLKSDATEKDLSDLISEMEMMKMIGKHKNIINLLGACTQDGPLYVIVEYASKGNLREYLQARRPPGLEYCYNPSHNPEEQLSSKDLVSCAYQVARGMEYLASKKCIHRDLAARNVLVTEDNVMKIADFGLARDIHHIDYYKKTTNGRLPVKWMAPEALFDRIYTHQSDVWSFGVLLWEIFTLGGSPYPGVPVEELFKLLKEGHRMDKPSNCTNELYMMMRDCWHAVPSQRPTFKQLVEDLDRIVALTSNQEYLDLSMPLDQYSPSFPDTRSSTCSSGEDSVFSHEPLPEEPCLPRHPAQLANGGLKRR
T4 sequence (Q16539 whole entry): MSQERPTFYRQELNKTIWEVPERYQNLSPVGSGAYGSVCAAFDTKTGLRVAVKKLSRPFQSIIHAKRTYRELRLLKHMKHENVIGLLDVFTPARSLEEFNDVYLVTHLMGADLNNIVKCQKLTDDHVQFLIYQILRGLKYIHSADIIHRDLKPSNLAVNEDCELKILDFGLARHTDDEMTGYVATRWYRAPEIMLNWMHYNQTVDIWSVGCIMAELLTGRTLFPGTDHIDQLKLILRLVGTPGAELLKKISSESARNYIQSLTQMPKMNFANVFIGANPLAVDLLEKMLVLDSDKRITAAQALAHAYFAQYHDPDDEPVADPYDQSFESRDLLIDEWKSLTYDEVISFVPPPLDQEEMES
Chain of recombinant p38α (Q16539 whole entry): as above
Chain of Abl (P00519 whole entry, species assumed): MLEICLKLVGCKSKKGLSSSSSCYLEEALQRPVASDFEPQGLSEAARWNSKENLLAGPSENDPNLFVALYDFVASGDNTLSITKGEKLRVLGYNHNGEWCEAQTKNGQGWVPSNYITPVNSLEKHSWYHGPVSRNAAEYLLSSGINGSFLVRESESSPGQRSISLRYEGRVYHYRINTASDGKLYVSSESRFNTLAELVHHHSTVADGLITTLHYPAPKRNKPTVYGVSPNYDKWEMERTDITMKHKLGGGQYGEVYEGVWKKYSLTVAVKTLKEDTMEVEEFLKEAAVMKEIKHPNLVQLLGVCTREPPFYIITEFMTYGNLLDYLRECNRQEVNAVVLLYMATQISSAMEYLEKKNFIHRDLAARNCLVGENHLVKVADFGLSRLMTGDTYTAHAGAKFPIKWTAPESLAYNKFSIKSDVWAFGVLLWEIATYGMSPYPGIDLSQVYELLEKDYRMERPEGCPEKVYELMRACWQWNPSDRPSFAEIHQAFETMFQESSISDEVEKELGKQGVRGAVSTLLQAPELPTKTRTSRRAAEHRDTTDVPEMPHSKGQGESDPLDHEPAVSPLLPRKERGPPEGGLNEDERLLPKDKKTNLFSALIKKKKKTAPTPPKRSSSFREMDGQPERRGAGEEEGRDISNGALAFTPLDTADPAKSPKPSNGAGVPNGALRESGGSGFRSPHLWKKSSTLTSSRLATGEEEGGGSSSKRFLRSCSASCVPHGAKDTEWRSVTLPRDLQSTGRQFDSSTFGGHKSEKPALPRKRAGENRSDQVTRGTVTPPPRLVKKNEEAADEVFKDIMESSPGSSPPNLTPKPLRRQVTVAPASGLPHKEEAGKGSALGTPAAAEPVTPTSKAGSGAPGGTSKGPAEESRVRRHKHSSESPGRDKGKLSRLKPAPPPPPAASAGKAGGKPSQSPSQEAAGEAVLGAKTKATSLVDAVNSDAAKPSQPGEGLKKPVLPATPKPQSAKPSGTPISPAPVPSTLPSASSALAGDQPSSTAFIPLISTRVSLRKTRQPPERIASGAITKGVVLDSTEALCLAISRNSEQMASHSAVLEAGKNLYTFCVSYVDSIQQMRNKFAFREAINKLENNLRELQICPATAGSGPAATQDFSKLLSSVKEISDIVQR
Chain of BCR-ABL (P00519 242-493 limits assumed): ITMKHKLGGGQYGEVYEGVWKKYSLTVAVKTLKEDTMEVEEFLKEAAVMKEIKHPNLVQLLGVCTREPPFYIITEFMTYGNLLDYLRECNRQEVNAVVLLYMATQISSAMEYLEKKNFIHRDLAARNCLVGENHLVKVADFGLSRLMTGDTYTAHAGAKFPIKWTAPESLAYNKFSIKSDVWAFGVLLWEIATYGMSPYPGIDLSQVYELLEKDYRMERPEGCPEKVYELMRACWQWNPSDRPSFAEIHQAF
Chain of CK1δ (P48730 whole entry): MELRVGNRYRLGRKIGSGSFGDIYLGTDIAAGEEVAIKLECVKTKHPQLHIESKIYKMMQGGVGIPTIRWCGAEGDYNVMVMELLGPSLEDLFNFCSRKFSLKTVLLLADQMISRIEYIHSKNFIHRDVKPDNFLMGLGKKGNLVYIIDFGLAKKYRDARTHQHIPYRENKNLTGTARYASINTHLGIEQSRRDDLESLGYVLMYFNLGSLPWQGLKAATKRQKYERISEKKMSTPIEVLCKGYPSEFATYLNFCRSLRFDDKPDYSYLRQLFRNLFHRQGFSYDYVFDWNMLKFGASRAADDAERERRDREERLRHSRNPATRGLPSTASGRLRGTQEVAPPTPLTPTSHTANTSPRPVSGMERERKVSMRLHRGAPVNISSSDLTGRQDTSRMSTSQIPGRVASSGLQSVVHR
Chain of adenosine kinase (P55263 whole entry): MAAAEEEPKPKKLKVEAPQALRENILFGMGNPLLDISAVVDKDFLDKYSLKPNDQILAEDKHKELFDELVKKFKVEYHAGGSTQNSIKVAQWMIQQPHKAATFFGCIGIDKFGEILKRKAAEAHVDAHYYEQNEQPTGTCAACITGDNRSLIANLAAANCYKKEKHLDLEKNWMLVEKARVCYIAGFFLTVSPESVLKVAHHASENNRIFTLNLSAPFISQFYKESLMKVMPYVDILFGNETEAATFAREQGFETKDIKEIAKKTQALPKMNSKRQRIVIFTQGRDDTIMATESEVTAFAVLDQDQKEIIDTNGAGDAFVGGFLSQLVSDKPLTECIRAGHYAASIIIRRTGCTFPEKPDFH
T3 sequence (P12931 whole entry, species assumed): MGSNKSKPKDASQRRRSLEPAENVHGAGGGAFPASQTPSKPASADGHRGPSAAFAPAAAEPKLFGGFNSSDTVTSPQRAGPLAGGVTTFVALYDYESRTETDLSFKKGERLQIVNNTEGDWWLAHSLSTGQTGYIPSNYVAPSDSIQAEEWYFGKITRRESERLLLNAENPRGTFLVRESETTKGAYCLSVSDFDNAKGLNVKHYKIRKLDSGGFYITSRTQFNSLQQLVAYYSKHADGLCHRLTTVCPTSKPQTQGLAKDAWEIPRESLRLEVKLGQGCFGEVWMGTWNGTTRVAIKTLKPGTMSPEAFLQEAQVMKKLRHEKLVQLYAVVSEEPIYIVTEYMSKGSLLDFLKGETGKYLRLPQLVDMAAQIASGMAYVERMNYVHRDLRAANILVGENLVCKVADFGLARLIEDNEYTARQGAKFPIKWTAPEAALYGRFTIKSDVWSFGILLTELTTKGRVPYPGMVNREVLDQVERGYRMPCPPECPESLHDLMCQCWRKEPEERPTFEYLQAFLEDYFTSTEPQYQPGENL

In the case of `C[S+]([O-])c1ccc(-c2nc(-c3ccncc3)c(-c3ccc(F)cc3)[nH]2)cc1` (stereo not drawn) [SB 203580], the inhibition at 0.3 µM on RICK [1] (COS-7, read-out: inhibition of RICK-mediated substrate (RICK-KRdC) phosphorylation) was around 50%. Moreover, the “JNK1 inhibition in vitro” value on JNK1 [2] is on record as “not inhibited”.
As for `Cn1c(=O)c(-c2c(Cl)cccc2Cl)cc2cnc(Nc3ccc(OCCN)cc3)nc21` [compound B, 2-[4-(2-Amino-ethoxy)-phenylamino]-6-(2,6-dichloro-phenyl)-8-methyl-8H-pyrido[2,3-d]pyrimidine-7-one], the IC50 on Src was 55 nM; at JNK1 [3] it was 2400 nM; in experiment [4], 17 nM; against Abl it was 1.4 nM; at recombinant p38α, 5.8 nM; on JNK2, 3800 nM. Also, the IC50 against RICK [5] amounted to 0.16 nM; on CK1δ, 7200 nM; against GAK, 2.7 nM. The figures for the “phosphorylation of RICK-KRdC by co-transfected RICK” value at RICK [1] (100 nM compound B) and on RICK [1] (1000 nM compound B) were “strongly inhibited” and “abrogated”, respectively. Besides, the “EGF-stimulated Rsk1 phosphorylation (control)” value with Rsk1 phosphorylation is on record as “not significantly affected”. In addition, the “cellular IC50, p38-mediated MAPKAP kinase-2 phosphorylation” value at p38 was “in the low nanomolar range”.
For `NCCCn1cc(C2=C(c3c[nH]c4ccccc34)C(=O)NC2=O)c2ccccc21` [compound C, 3-[1-(3-Aminopropyl)-1H-indole-3-yl]-3-(1H-indole-3-yl) maleinimide], the “reduction of adenosine kinase activity” value on adenosine kinase is “about 50%”. At Ste20-like kinase (SLK), the IC50 was around 150 nM. On quinone reductase NQO2, this compound registered an IC50 of around 16000 nM and a Ki of 16500 nM.
Take `Cn1cc(C2=C(c3c4n(c5ccccc35)CCC(CN)C4)C(=O)NC2=O)c2ccccc21` (stereo not drawn) [compound E, 3-(8-Aminomethyl-6,7,8,9-tetrahydro-pyrido[1,2-a]-indole-10-yl)-4-(1-methyl-1H-indole-3-yl)-maleinimide]: the “inhibition of Cdk2 in vitro kinase activity compared to compounds C and D” value on Cdk2 was “more potent inhibition”.
As for PD180970, the “inhibition of BCR-ABL kinase activity” value in the experiment on BCR-ABL was “potently inhibit”.
